Experiment [1] in a line: Calcein leakage from mammalian-mimic artificial vesicles. Particulars: mammalian-mimic PC/CH/SM vesicles, 20 μM lipid; peptide/lipid molar ratio 0.1; 100% = 0.03% Triton X-100. How it is done:
(§1) The permeability of peptides in calcein-entrapped artificial liposomes was assayed by measuring calcein leakage. The desired mixtures of lipids (PC/PE/PI/ergosterol, 5:4:1:2 and PC/CH/SM, 2:1:1, weight ratio) were dissolved in chloroform at 10 mg/mL, dried in a glass tube under nitrogen, and then lyophilized overnight to remove residual solvent. The dried lipid films were resuspended in 1 mL of dye solution (80 mM calcein, 10 mM HEPES buffer, pH 7.2) at 50 °C and vortexed, followed by freeze-thawing for nine cycles and extrusion with polycarbonate filters (0.2-μm pore-size) using an Avanti Mini-Extruder (Avanti Polar Lipids Inc., Alabaster, AL, USA). Free calcein was removed using PD-10 desalting columns (GE Healthcare Life Science, Seoul, Korea). Calcein-entrapped vesicles of 20 μM lipids were incubated with peptides at concentrations of […], 0.02, 0.05, and 0.1 molar ratio (peptide/lipid) and the fluorescence was assessed at 480 (Ex) and 520 (Em) nm using a microtiter SpectraMax M5 reader (Molecular Devices). Complete (100%) release was achieved by the addition of 0.03% Triton X-100 (v/v).

A further experiment has as its system C. albicans. The format is cell-based, C. albicans (KCTC 7270). Particulars: 36 h. From the text:
(§2) Aspergillus flavus (KCTC 6905), A. fumigatus (KCTC 6145), Fusarium moniliforme (KCTC 6149), F. oxysporum (KCTC 16909), C. albicans (KCTC 7270), C. krusei (CCARM 14017), C. parapsilosis (CCARM 14016), C. tropicalis (KCTC 7221), and T. beigelii (KCTC 7707) were obtained from the Korea Collection for Type Cultures (KCTC) and Culture Collection of Antimicrobial Resistant Microbes (CCARM). Mold and yeast fungi were pre-grown on potato dextrose (PD) and yeast extract peptone dextrose (YPD) agars, respectively.
(§3) Antifungal activity of peptides was performed by microtiter plate assays. Fungal conidia from four-day-old molds were collected using 0.08% Triton X-100 (v/v), and pre-cultivated yeast cells were adjusted to 2 × 10^4 spores/mL in 10 mM sodium phosphate buffer (SP, pH 7.2) or 10 mM 2-(N-morpholino)ethanesulfonic acid (MES) buffer (pH 5.5) supplemented with 20% culture medium, followed by addition to peptide solutions (0.25, 0.5, 1, 1.5, 2, 4, 6, 8, 12, 16, 32, 48, and 64 µM) in 96-well microtiter plates. After incubation for 36 h at 28 °C, the hyphal growth of conidia and the proliferation of yeast cells were observed under a light microscope. All assays were performed in triplicate. The MIC values were defined as the lowest concentration of samples that reduced fungal germination (for mold) or cell proliferation (for yeast) by more than 90% [34].

For the next experiment, the system named is C. tropicalis. In kind it is cell-based, C. tropicalis (KCTC 7221). Particulars: 36 h.
Excerpt: as §2, §3

For a further experiment, the system named is T. beigelii. The format is cell-based, T. beigelii (KCTC 7707). The settings on record: 36 h.
Excerpt: as §2, §3

The subject of another experiment is A. flavus. In kind it is cell-based, Aspergillus flavus (KCTC 6905). Particulars: 36 h.
Excerpt: as §2, §3

Experiment [2] is described as follows: Calcein leakage from fungus-mimic artificial vesicles. The settings on record: fungus-mimic PC/PE/PI/ergosterol vesicles, 20 μM lipid; peptide/lipid molar ratio 0.05; 100% = 0.03% Triton X-100; three independent experiments. As for the experimental part: as §1

Where two headings read alike, the source gives them in different places. No end group written: not given here.

For “GLNALKKVFQGIHEAIKLINNHVQ-NH2 [Pseudin-2]”, in experiment [1], the calcein efflux entry is recorded as “significant dye leakage”. Moreover, the MIC in the experiment on C. albicans (pH 5.5) is reported as 32 µM; in the experiment with C. albicans (pH 7.2), 12 µM; in the experiment on C. tropicalis (pH 5.5), 2 µM; against C. tropicalis (pH 7.2), 4 µM; in the experiment with T. beigelii (pH 5.5) it was 2 (2) µM; in the experiment on T. beigelii (pH 7.2), 2 (2) µM. The values for the MIC against A. flavus (pH 5.5) and in the experiment on A. flavus (pH 7.2) were 16 µM and 64 µM, respectively. Moreover, the leakage of calcein in experiment [2] is given as 80.1%.

These data come from paper PMC7766124, “Improved Cell Selectivity of Pseudin-2 via Substitution in the Leucine-Zipper Motif: In Vitro and In Vivo Antifungal Activity” (Antibiotics, 2020).
